Biological target: T1, human Cav3.2 channels (Homo sapiens, UniProt O95180)
T1 construct: human Cav3.2 channel ORF (Open Reading Frame) gene; expressed in transfected cells; host or cells: HEK293 cells (ATCC No. CRL-1573), pcDNA3.1(+) plasmid
Test: T-type calcium blocking action: intracellular calcium (Fluo-4 AM fluorescence) in HEK293 cells steadily expressing human Cav3.2 channels
Type: cell-based
Settings: HEK293 cells expressing human Cav3.2; KCl-stimulated calcium influx, Fluo-4 fluorescence; Tables 1 to 3
Procedure, shortened: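 Fluo-4 AM-loaded stable HEK293 cells were preincubated 15 min at RT with compound (0.1% DMSO final) in choline-based buffer (pH 7.3). Gramicidin was added, then KCl-induced calcium influx was read at 485/510 nm for 10 s. Percent block came from peak rise over baseline, and IC50 from log-concentration plots.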

T1 sequence (O95180 whole entry): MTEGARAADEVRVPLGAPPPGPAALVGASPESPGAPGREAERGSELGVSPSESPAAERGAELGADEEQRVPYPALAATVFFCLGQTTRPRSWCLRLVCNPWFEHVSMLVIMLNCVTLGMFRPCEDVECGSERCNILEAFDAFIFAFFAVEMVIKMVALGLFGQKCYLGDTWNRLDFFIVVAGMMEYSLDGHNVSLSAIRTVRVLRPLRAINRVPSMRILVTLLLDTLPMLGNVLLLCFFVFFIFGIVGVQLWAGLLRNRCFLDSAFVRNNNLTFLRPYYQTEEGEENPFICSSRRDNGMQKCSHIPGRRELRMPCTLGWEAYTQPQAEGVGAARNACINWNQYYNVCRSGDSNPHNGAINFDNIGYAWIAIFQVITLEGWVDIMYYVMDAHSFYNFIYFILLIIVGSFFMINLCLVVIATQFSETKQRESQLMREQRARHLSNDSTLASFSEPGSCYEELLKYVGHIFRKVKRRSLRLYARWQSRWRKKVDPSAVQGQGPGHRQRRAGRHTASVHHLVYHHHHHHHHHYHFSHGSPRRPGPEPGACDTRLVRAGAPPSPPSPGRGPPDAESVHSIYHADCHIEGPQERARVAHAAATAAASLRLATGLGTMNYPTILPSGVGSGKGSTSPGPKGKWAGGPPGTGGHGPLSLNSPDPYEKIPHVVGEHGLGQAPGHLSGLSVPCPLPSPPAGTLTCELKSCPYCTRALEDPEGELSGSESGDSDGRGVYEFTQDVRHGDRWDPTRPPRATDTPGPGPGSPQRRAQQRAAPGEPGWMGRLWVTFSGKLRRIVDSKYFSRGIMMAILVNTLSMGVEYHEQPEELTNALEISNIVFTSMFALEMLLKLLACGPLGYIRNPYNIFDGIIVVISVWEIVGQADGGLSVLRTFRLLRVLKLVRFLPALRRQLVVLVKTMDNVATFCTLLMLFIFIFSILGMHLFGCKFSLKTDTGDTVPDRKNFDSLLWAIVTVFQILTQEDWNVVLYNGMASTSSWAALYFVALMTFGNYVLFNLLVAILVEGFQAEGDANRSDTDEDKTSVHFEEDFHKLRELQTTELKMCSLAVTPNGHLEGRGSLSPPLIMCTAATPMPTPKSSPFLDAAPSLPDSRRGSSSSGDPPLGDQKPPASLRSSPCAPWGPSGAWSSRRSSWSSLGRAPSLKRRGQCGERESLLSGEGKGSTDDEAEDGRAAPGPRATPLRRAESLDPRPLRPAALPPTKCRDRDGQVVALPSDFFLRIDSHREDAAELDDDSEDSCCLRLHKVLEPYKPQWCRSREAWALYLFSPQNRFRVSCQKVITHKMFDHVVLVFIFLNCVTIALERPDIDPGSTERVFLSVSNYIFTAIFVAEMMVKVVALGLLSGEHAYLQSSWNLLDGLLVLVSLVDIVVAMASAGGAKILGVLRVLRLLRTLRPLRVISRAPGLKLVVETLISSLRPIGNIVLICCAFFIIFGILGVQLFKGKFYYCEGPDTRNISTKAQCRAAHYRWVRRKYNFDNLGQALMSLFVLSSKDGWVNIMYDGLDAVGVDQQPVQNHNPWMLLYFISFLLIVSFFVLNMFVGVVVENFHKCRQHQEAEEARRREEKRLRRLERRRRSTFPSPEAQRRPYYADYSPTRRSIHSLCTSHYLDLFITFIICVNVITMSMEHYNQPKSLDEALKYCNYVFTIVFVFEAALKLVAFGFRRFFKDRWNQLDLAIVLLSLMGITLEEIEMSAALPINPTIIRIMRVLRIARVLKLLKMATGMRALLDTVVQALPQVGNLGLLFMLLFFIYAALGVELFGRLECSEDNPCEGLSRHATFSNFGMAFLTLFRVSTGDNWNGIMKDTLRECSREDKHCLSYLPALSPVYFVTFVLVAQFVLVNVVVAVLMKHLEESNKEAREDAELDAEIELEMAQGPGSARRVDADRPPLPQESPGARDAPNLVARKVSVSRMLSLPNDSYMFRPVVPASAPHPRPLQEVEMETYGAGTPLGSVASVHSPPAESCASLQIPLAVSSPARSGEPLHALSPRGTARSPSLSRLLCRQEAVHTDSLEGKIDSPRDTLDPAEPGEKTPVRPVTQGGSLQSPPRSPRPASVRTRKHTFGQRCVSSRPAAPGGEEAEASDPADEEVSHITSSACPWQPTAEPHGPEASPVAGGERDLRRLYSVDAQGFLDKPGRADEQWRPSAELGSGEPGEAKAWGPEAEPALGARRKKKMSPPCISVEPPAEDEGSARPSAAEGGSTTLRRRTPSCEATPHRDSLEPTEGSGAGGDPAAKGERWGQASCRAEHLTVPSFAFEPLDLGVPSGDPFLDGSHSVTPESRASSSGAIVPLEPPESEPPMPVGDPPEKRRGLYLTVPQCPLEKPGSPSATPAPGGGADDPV

| SMILES | IC50 [nM] |
| --- | --- |
| O=C(N[C@@H]1CCN(c2cncc(C(F)(F)F)c2)C1)C1CC1c1ccc(Cl)cc1 (single isomer, unassigned) [Example 108B] | 200 |
| O=C(N[C@@H]1CCN(c2ccc(C(F)(F)F)nc2)C1)C1CC1c1c[nH]c2ccccc12 (single isomer, unassigned) [Example 66] | 69 |
| O=C(Cc1nc2ccccc2o1)N[C@@H]1CCN(c2cncc(C(F)(F)F)c2)C1 [Example 98, (R)-2-(benzo[d]oxazol-2-yl)-N-(1-(5-(trifluoromethyl)pyridin-3-yl)pyrrolidin-3-yl)acetamide] | 1100 |
| O=C(N[C@@H]1CCN(c2cncc(C(F)(F)F)c2)C1)C1CC1c1cc(Cl)cc(Cl)c1 (single isomer, unassigned) [Example 99B] | 480 |
| O=C(N[C@@H]1CCN(c2ccc(C(F)(F)F)cc2)C1)C1CC1c1nc2ccccc2[nH]1 (single isomer, unassigned) [Example 52] | 110 |
| Cn1ccc2cc(CC(=O)N[C@@H]3CCN(c4cncc(C(F)(F)F)c4)C3)ccc21 [Example 139, (R)-2-(1-methyl-1H-indol-5-yl)-N-(1-(5-(trifluoromethyl)pyridin-3-yl)pyrrolidin-3-yl)acetamide] | 5.4 |
| O=C(Cc1ccc2ncsc2c1)N[C@@H]1CCN(c2ccc(C(F)(F)F)nc2)C1 [Example 158, (R)-2-(benzo[d]thiazol-6-yl)-N-(1-(6-(trifluoromethyl)pyridin-3-yl)pyrrolidin-3-yl)acetamide] | 1100 |
| CC(C)(O)c1ccc(CC(=O)N[C@@H]2CCN(c3cncc(C(F)(F)F)c3)C2)cc1 [Example 131, (R)-2-(4-(2-hydroxypropan-2-yl)phenyl)-N-(1-(5-(trifluoromethyl)pyridin-3-yl)pyrrolidin-3-yl)acetamide] | 200 |
| O=C(Cc1ccc(Br)cc1)N[C@@H]1CCN(c2cncc(C(F)(F)F)c2)C1 [Example 171, (R)-2-(4-bromophenyl)-N-(1-(5-(trifluoromethyl)pyridin-3-yl)pyrrolidin-3-yl)acetamide] | 110 |
| O=C(N[C@@H]1CCN(c2cccc(C(F)(F)F)c2)C1)[C@H]1C[C@@H]1c1nc2ccccc2n1C1CC1 [Example 75, (1S,2S)-2-(1-cyclopropyl-1H-benzo[d]imidazol-2-yl)-N—((R)-1-(3-(trifluoromethyl)phenyl)pyrrolidin-3-yl)cyclopropane-1-carboxyamide] | 310 |
| O=C(Cc1ccc(C2CC2)cc1)N[C@@H]1CC[N+]([O-])(c2cncc(C(F)(F)F)c2)C1 (stereo partly drawn) [Example 134B, (3R)-3-(2-(4-cyclopropylphenyl)acetamido)-1-(5-(trifluoromethyl)pyridin-3-yl)pyrrolidine 1-oxide] | 1000 |
| Cn1nc(CC(=O)N[C@@H]2CCN(c3cncc(C(F)(F)F)c3)C2)cc1C(F)(F)F [Example 81, (R)-2-(1-methyl-5-(trifluoromethyl)-1H-pyrazol-3-yl)-N-(1-(5-(trifluoromethyl)pyridin-3-yl)pyrrolidin-3-yl) acetamide] | 550 |
| O=C(Cc1ccc(C2CC2)cc1)N[C@@H]1CCN(c2cc(C(F)(F)F)c[n+]([O-])c2)C1 [Example 134A, (R)-3-(3-(2-(4-cyclopropylphenyl)acetamido)pyrrolidin-1-yl)-5-(trifluoromethyl)pyridine 1-oxide] | 930 |
| CC(C)c1ccc(CC(=O)N[C@@H]2CCN(c3cnc(C(F)(F)F)nc3)C2)cc1 [Example 3, (R)-2-(4-isopropylphenyl)-N-(1-(2-(trifluoromethyl)pyrimidin-5-yl)pyrrolidin-3-yl)acetamide] | 850 |
| O=C(N[C@@H]1CCN(c2nc(C(F)(F)F)cs2)C1)[C@H]1C[C@@H]1c1nc2ccccc2[nH]1 [Example 64, (1S,2S)-2-(1H-benzo[d]imidazol-2-yl)-N—((R)-1-(4-(trifluoromethyl)thiazol-2-yl)pyrrolidin-3-yl)cyclopropane-1-carboxyamide] | 37 |

— patent publication US20220226299A1 (NIPPON CHEMIPHAR CO., LTD., priority 2019, published 2022)
